Toxic doses and inconclusive results are not listed. Cut-off read from the data, not from the text of the source: active = T/C of 150% or more; inactive = T/C below 125%.
Tested on: L1210 leukemia ip in BDF1 mice, survival T/C
Test: NCI In Vivo Anticancer Drug Screen. Data for tumor model L1210 Leukemia (intraperitoneal) in B6D2F1 (BDF1) mice
Details: endpoint: mean survival time, higher = longer survival
How it was run: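 In this screen, tumor-bearing mice given compound are compared to those given vehicle, and their survival values are reported as a treated-to-control quotient.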

[1] = dose: 100.0 mg/kg/injection, schedule: Q01DX001 (ip), vehicle: saline
[2] = dose: 100.0 mg/kg/injection, schedule: Q01DX009 (ip), vehicle: saline
[3] = dose: 200.0 mg/kg/injection, schedule: Q01DX001 (ip), vehicle: saline
[4] = dose: 200.0 mg/kg/injection, schedule: Q01DX009 (ip), vehicle: saline
[5] = dose: 400.0 mg/kg/injection, schedule: Q01DX001 (ip), vehicle: saline
[6] = dose: 400.0 mg/kg/injection, schedule: Q01DX009 (ip), vehicle: saline
[7] = dose: 100.0 mg/kg/injection, schedule: Q01DX009 (ip), vehicle: Klucel (hydroxypropylcellulose) (HPC)
[8] = dose: 200.0 mg/kg/injection, schedule: Q01DX009 (ip), vehicle: Klucel (hydroxypropylcellulose) (HPC)
[9] = dose: 400.0 mg/kg/injection, schedule: Q01DX009 (ip), vehicle: Klucel (hydroxypropylcellulose) (HPC)
[10] = dose: 50.0 mg/kg/injection, schedule: Q01DX009 (ip), vehicle: saline with Tween-80
[11] = dose: 100.0 mg/kg/injection, schedule: Q01DX009 (ip), vehicle: saline with Tween-80
[12] = dose: 200.0 mg/kg/injection, schedule: Q01DX009 (ip), vehicle: saline with Tween-80
[13] = dose: 200.0 mg/kg/injection, schedule: Q04DX002 (ip), vehicle: Klucel (hydroxypropylcellulose) (HPC)

Measured: T/C

NC(N)=NC(N)=NCc1ccc(S(N)(=O)=O)cc1
inactive: [1] 102 % of control | [2] 96 % of control | [3] 94 % of control | [4] 100 % of control | [5] 103 % of control | [6] 97 % of control

O=C(SCCSC(=O)c1ccccc1)c1ccccc1
inactive: dose: 75.0 mg/kg/injection, schedule: Q04DX003 (ip), vehicle: other 98 % of control | dose: 150.0 mg/kg/injection, schedule: Q04DX003 (ip), vehicle: other 106 % of control | dose: 300.0 mg/kg/injection, schedule: Q04DX003 (ip), vehicle: other 112 % of control

CC1C(C(=O)c2ccc(-c3ccccc3)cc2)N1C(C)(C)C (stereo not given)
inactive: dose: 100.0 mg/kg/injection, schedule: Q01DX001 (ip), vehicle: Klucel (hydroxypropylcellulose) (HPC) 87 % of control | dose: 200.0 mg/kg/injection, schedule: Q01DX001 (ip), vehicle: Klucel (hydroxypropylcellulose) (HPC) 93 % of control | dose: 400.0 mg/kg/injection, schedule: Q01DX001 (ip), vehicle: Klucel (hydroxypropylcellulose) (HPC) 94 % of control

C#CCCCCCCCCCC(=O)OC
inactive: [7] 102 % of control | dose: 100.0 mg/kg/injection, schedule: Q04DX003 (ip), vehicle: Klucel (hydroxypropylcellulose) (HPC) 103 % of control | [8] 102 % of control | dose: 200.0 mg/kg/injection, schedule: Q04DX003 (ip), vehicle: Klucel (hydroxypropylcellulose) (HPC) 95 % of control | [9] 104 % of control | dose: 400.0 mg/kg/injection, schedule: Q04DX003 (ip), vehicle: Klucel (hydroxypropylcellulose) (HPC) 98 % of control

CCC(=O)C(C)(C)c1ccccc1 (tested in a mixture with another compound)
inactive: [10] 95 % of control | [11] 88 % of control | [12] 96 % of control

CCCCNC(c1ccc(C=NC(CC)(CO)CO)cc1)C(Br)(Br)Br (stereo not given)
inactive: [1] 92 % of control | [2] 88 % of control | [3] 92 % of control | [4] 90 % of control | [5] 97 % of control | [6] 91 % of control

O=C(c1ccccc1)C(SC(=S)OCc1ccccc1)c1ccccc1 (stereo not given)
inactive: dose: 25.0 mg/kg/injection, schedule: Q01DX009 (ip), vehicle: saline with Tween-80 98 % of control | [10] 100 % of control | [11] 96 % of control

Cn1c(CO)nc2c1c(=O)[nH]c(=O)n2C
inactive: dose: 100.0 mg/kg/injection, schedule: Q01DX001 (ip), vehicle: other 98 % of control | dose: 200.0 mg/kg/injection, schedule: Q01DX001 (ip), vehicle: other 98 % of control | dose: 400.0 mg/kg/injection, schedule: Q01DX001 (ip), vehicle: other 95 % of control

Cc1ccc(NC(=O)c2ccc(C)c(N)c2)c(C)c1
inactive: dose: 100.0 mg/kg/injection, schedule: Q01DX009 (ip), vehicle: gum acacia 100 % of control | dose: 100.0 mg/kg/injection, schedule: Q04DX003 (ip), vehicle: gum acacia 98 % of control | dose: 200.0 mg/kg/injection, schedule: Q01DX009 (ip), vehicle: gum acacia 87 % of control | dose: 200.0 mg/kg/injection, schedule: Q04DX003 (ip), vehicle: gum acacia 102 % of control | dose: 400.0 mg/kg/injection, schedule: Q01DX009 (ip), vehicle: gum acacia 87 % of control | dose: 400.0 mg/kg/injection, schedule: Q04DX003 (ip), vehicle: gum acacia 98 % of control

O=C(Nc1ccc(Br)cc1)Oc1ccc(Nc2ccccc2)cc1
inactive: [7] 98 % of control | [8] 89 % of control | [9] 98 % of control

COC1CCC(OC2CC(C3(C)CCC4(CC(O)C(C)C(C(C)/C=C(\C)C(=O)C(C)CC(C)C(=O)O)O4)O3)OC3(OC(C4OC(O)(CO)C(C)CC4C)CC3C)C2C)OC1C (stereo not given)
inactive: dose: 0.93 mg/kg/injection, schedule: Q01DX001 (ip), vehicle: saline 93 % of control | dose: 1.87 mg/kg/injection, schedule: Q01DX001 (ip), vehicle: saline 90 % of control | dose: 28.0 micrograms/kg/injection, schedule: Q01DX009 (ip), vehicle: saline 94 % of control | dose: 57.0 micrograms/kg/injection, schedule: Q01DX009 (ip), vehicle: saline 88 % of control | dose: 57.0 micrograms/kg/injection, schedule: Q04DX003 (ip), vehicle: saline 94 % of control | dose: 115.0 micrograms/kg/injection, schedule: Q01DX009 (ip), vehicle: saline 105 % of control | dose: 115.0 micrograms/kg/injection, schedule: Q04DX003 (ip), vehicle: saline 91 % of control | dose: 230.0 micrograms/kg/injection, schedule: Q04DX003 (ip), vehicle: saline 89 % of control

NC(Cc1cccnc1)C(=O)O (stereo not given)
inactive: dose: 100.0 mg/kg/injection, schedule: Q01DX001 (ip), vehicle: saline with Tween-80 109 % of control | dose: 200.0 mg/kg/injection, schedule: Q01DX001 (ip), vehicle: saline with Tween-80 103 % of control | dose: 400.0 mg/kg/injection, schedule: Q01DX001 (ip), vehicle: saline with Tween-80 98 % of control

Cc1cc(C(=O)c2ccccn2)c2cccc(C(F)(F)F)c2n1
inactive: [10] 94 % of control | [11] 102 % of control | dose: 100.0 mg/kg/injection, schedule: Q04DX003 (ip), vehicle: saline with Tween-80 92 % of control | [12] 100 % of control | dose: 200.0 mg/kg/injection, schedule: Q04DX003 (ip), vehicle: saline with Tween-80 88 % of control

N#CSCc1ccccc1Cl
inactive: dose: 6.25 mg/kg/injection, schedule: Q04DX003 (ip), vehicle: Klucel (hydroxypropylcellulose) (HPC) 104 % of control | dose: 12.5 mg/kg/injection, schedule: Q04DX003 (ip), vehicle: Klucel (hydroxypropylcellulose) (HPC) 104 % of control | dose: 25.0 mg/kg/injection, schedule: Q04DX003 (ip), vehicle: Klucel (hydroxypropylcellulose) (HPC) 93 % of control | dose: 50.0 mg/kg/injection, schedule: Q04DX003 (ip), vehicle: Klucel (hydroxypropylcellulose) (HPC) 96 % of control

CC1C=C2c3ccccc3CC2C2C(=O)OC(=O)C12 (stereo not given)
inactive: dose: 75.0 mg/kg/injection, schedule: Q01DX001 (ip), vehicle: saline 95 % of control | dose: 150.0 mg/kg/injection, schedule: Q01DX001 (ip), vehicle: saline 100 % of control | dose: 300.0 mg/kg/injection, schedule: Q01DX001 (ip), vehicle: saline 100 % of control

CC(c1ccccc1)C(C(=O)O)C(=O)O (stereo not given)
inactive: dose: 50.0 mg/kg/injection, schedule: Q01DX001 (ip), vehicle: carboxymethylcellulose (CMC) 100 % of control | dose: 100.0 mg/kg/injection, schedule: Q01DX001 (ip), vehicle: carboxymethylcellulose (CMC) 96 % of control | dose: 200.0 mg/kg/injection, schedule: Q01DX001 (ip), vehicle: carboxymethylcellulose (CMC) 96 % of control | dose: 400.0 mg/kg/injection, schedule: Q01DX001 (ip), vehicle: carboxymethylcellulose (CMC) 97 % of control

Cc1cc(C(=O)O)c(C)c2c1sc1ccccc12
inactive: [1] 87 % of control | [3] 107 % of control

CC1(C)C2CCC1(CBr)C(=O)C2 (stereo not given)
inactive: [13] 100 % of control

NNC(=O)CNc1cccc(I)c1
inactive: dose: 100.0 mg/kg/injection, schedule: Q04DX002 (ip), vehicle: Klucel (hydroxypropylcellulose) (HPC) 102 % of control | [13] 95 % of control | dose: 400.0 mg/kg/injection, schedule: Q04DX002 (ip), vehicle: Klucel (hydroxypropylcellulose) (HPC) 109 % of control

C/C(C/C(C)=N/O)=N/O.C/C(C/C(C)=N/O)=N\O.[Cl][Rh][Cl]
inactive: dose: 25.0 mg/kg/injection, schedule: Q01DX009 (ip), vehicle: water 100 % of control | dose: 50.0 mg/kg/injection, schedule: Q01DX009 (ip), vehicle: water 97 % of control | dose: 100.0 mg/kg/injection, schedule: Q01DX009 (ip), vehicle: water 97 % of control | dose: 200.0 mg/kg/injection, schedule: Q01DX009 (ip), vehicle: water 100 % of control | dose: 400.0 mg/kg/injection, schedule: Q01DX009 (ip), vehicle: water 94 % of control

From PubChem BioAssay AID248 (DTP/NCI, 2004)
